Measured values from patent US10238631B2, “Sesquiterpene derivatives and their use in inflammation or cancer treatment” (Academia Sinica, priority 2014, dated 2019).
Where two headings read alike, the source gives them in different places.

How the values were obtained:
A375 (BRAF mutation) = assay: MTT cell viability assay, A375 melanoma; format: cell-based, human; conditions: Homo sapiens, A-375, 24 h, read-out: IC50 on cell viability, A375 (BRAF mutation)
Protocol: (§1) Normal or cancer cells (2×10^3 to 1×10^4 cells/well) were seeded in 96-well plate for overnight and treated with different compounds for 24 h to 72 h. Cells growth were determined by MTT-based colorimetric assays according to. Viability of the test cells treated with vehicle (0.5% DMSO) only was defined as 100% viable. Survival of cells after treatment with DETDs was calculated using the following formula: viable cell number (%)=OD570 (treated cell culture)/OD570 (vehicle control)×100.
(§2) Several genes are involved in melanoma development and pathology; specifically, mutation in V-raf murine sarcoma viral oncogene homolog B1 (B-RAF) occurs approximately 50-60% and in neuroblastoma RAS viral oncogene homolog (N-RAS) occurs about 30% of malignant melanomas. A spectrum of wild-type or mutated melanoma cell lines including B16-F10, MeWo, A375, A2058, HTB-68, and melanocyte were used to study anti-melanoma cell proliferation activity of parental phytocompound DET and newly synthesized DETDs.
To investigate whether or not DETD-35 show synergism with PLX4032 against A375 melanoma cells, we performed anti-proliferation assay using MTT reagent to obtain IC50 of each compound. […] The synergistic effect was quantified by combination index (CI) analysis as stated above.

[1] = system: MCF-7 (ER+, Her2−) human breast cancer cells; assay: MTT cell viability assay, MCF-7 cells; format: cell-based; conditions: MCF7, 24 h, read-out: IC50 on cell viability, MCF-7 (ER+, Her2−)
Protocol: as §1
(§3) Sixty DETDs were derived from parental compound […] and tested for anti-breast cancer cell activity.

[2] = system: M10 normal mammary epithelial cells; assay: MTT cell viability assay, M10 normal cells; format: cell-based, human; conditions: Homo sapiens, Epithelial cell, 24 h
Protocol: as §1, §3

[3] = system: TS/A (ER+, Her2−) murine mammary cancer cells; assay: MTT cell viability assay, TS/A cells; format: cell-based; conditions: Mus musculus, 24 h, read-out: IC50 on cell viability, TS/A (ER+, Her2−)
Protocol: as §1, §3

[4] = system: Melanocyte (Normal cells); assay: MTT cell viability assay, normal melanocytes; format: cell-based, human; conditions: Homo sapiens, Melanocyte, 24 h
Protocol: as §1, §2

HTB-68 (NRAS mutation) = assay: MTT cell viability assay, HTB-68 melanoma; format: cell-based, human; conditions: Homo sapiens, 24 h
Protocol: as §1, §2

A2058 (BRAF mutation) = assay: MTT cell viability assay, A2058 melanoma; format: cell-based, human; conditions: Homo sapiens, A2058, 24 h
Protocol: as §1, §2

[5] = system: LPS-induced nitric oxide (NO) production in RAW 264.7 cells; assay: Nitric oxide production in LPS-stimulated macrophages (Griess); format: cell-based, mouse; conditions: Mus musculus; LPS-stimulated RAW264.7, nitrite 24 h after LPS
Protocol: (§4) Marcophages (2×10^5 cells/well in 96-well plate) were treated with compounds for 1 h, then incubated further for 24 h with or without the presence of […] LPS in the cultural medium. Nitrite levels in cell culture medium were determined by the Griess reaction method. In parallel to the Griess assays, macrophage cell viabilities were determined using the MTT based colorimetric assay.
LPS from the outer membrane of Gram-negative bacteria can induce mRNA or protein levels of inducible nitric oxide synthase (iNOS), which catalyzes oxidative deamination of L-arginine to produce nitric oxide (NO). Once NO is predominantly produced, it interacts with superoxide anion and generates highly reactive oxidants resulting in cellular inflammation, DNA, protein and tissue damages, carcinogenesis, and antiapoptosis. We used in vitro LPS stimulated inflammation in RAW264.7 cell system to evaluate the effect of DET and its derivatives DETDs on NO production by determination of nitrite level (equivalent to NO level) in culture medium 24 h after LPS treatment.

[6] = system: MeWo (No NRAS or BRAF mutation); assay: MTT cell viability assay, MeWo melanoma; format: cell-based, human; conditions: Homo sapiens, MeWo, 24 h
Protocol: as §1, §2

[7] = system: MDA-MB-231 (ER−, PR−, Her2−) human breast cancer cells; assay: MTT cell viability assay, MDA-MB-231 cells; format: cell-based; conditions: Homo sapiens, MDA-MB-231, 24 h, read-out: IC50 on cell viability, MDA-MB-231 (ER−, PR−, Her2−)
Protocol: as §1, §3

[8] = system: RAW264.7 (normal macrophage); assay: MTT cell viability assay, RAW264.7 macrophages; format: cell-based, mouse; conditions: Mus musculus, RAW264.7, 24 h
Protocol: as §1, §4

B16-F10 (NRAS mutation) = assay: MTT cell viability assay, B16-F10 melanoma; format: cell-based; conditions: Mus musculus, B16-F10, 24 h, read-out: IC50 on cell viability, B16-F10 (NRAS mutation)
Protocol: as §1, §2

| Compound | IC50 (A375 (BRAF mutation); 24 h, MTT) | IC50 [1] | IC50 [2] | IC50 [3] | IC50 [4] | IC50 (HTB-68 (NRAS mutation)) | IC50 (A2058 (BRAF mutation)) | IC50 [5] | IC50 [6] | IC50 [7] | IC50 [8] | IC50 (B16-F10 (NRAS mutation); 24 h) | IC50 (A375 (BRAF mutation)) | IC50 (B16-F10 (NRAS mutation)) |
| --- | --- | --- | --- | --- | --- | --- | --- | --- | --- | --- | --- | --- | --- | --- |
| C=C1C(=O)OC2CC3=C[C@@H](C/C(C)=C/C(OC(=O)C=C(C)CCC=C(C)C)[C@H]12)OC3=O (stereo partly drawn) [DETD-14] | > 10 µM | > 7.5 µM | > 7.5 µM | > 7500 nM | > 10 µM | > 10 µM | > 10 µM | 2200 nM | > 10 µM | > 7.5 µM | > 10 µM | > 10 µM | – | – |
| C=C1C(=O)OC2CC3=C[C@@H](C/C(C)=C/C(OC(=O)C(C)CC)[C@H]12)OC3=O (stereo partly drawn) [DETD-13] | > 10 µM | 3.7 µM | > 7.5 µM | 1900 nM | > 10 µM | > 10 µM | > 10 µM | 2000 nM | > 10 µM | 7.5 µM | > 10 µM | 7.1 µM | – | – |
| C=C1C(=O)OC2CC3=C[C@@H](C/C(C)=C/C(OC(=O)/C=C/c4cc(OC)c(OC)c(OC)c4)[C@H]12)OC3=O (stereo partly drawn) [DETD-7] | 4.9 µM | 2.3 µM | > 7.5 µM | 1800 nM | > 10 µM | 8.4 µM | 5.5 µM | 2200 nM | > 10 µM | 6.1 µM | > 10 µM | 4.8 µM | – | – |
| C=C1C(=O)OC2CC3=C[C@@H](C/C(C)=C/C(OC(=O)/C=C/c4ccc(C)cc4)[C@H]12)OC3=O (stereo partly drawn) [DETD-27] | > 10 µM | 3.7 µM | > 7.5 µM | 2400 nM | > 10 µM | > 10 µM | > 10 µM | 1900 nM | > 10 µM | 3.6 µM | > 10 µM | 4.8 µM | – | – |
| C=C1C(=O)OC2CC3=C[C@@H](C/C(C)=C/C(OC(=O)c4cc5ccccc5o4)[C@H]12)OC3=O (stereo partly drawn) [DETD-40] | > 10 µM | 6.1 µM | > 7.5 µM | 3100 nM | > 10 µM | > 10 µM | > 10 µM | 4500 nM | > 10 µM | 4.9 µM | > 10 µM | 4.3 µM | – | – |
| C=C1C(=O)OC2CC3=C[C@@H](C/C(C)=C/C(OC(=O)Cc4ccccc4)[C@H]12)OC3=O (stereo partly drawn) [DETD-43] | – | > 7.5 µM | > 7.5 µM | 2400 nM | > 10 µM | 8.2 µM | 8.7 µM | 3500 nM | > 10 µM | 6.9 µM | > 10 µM | – | 3.6 µM | 7.4 µM |
| C=C1C(=O)OC2CC3=C[C@@H](C/C(C)=C/C(OC(=O)CCc4cccc5ccccc45)[C@H]12)OC3=O (stereo partly drawn) [DETD-51] | > 10 µM | > 7.5 µM | > 7.5 µM | > 7500 nM | > 10 µM | > 10 µM | > 10 µM | > 10000 nM | > 10 µM | > 15 µM | > 10 µM | > 10 µM | – | – |
| C=C1C(=O)OC2CC3=C[C@@H](C/C(C)=C/C(O)[C@H]12)OC3=O (stereo partly drawn) [DETD-3] | > 10 µM | > 7.5 µM | > 7.5 µM | 7500 nM | > 10 µM | > 10 µM | > 10 µM | > 10000 nM | > 10 µM | > 7.5 µM | > 10 µM | > 10 µM | – | – |
| C=C1C(=O)OC2CC3=C[C@@H](C/C(C)=C/C(OC(=O)c4cc5ccccc5s4)[C@H]12)OC3=O (stereo partly drawn) [DETD-41] | > 10 µM | 5.3 µM | > 7.5 µM | 2800 nM | > 10 µM | > 10 µM | > 10 µM | 3500 nM | > 10 µM | 5 µM | > 10 µM | 5.5 µM | – | – |
